According to patent US5786332A, “Cytokine restraining agents and methods of use in pathologies and conditions associated with altered cytokine levels” (Trega Biosciences, Inc., priority 1995, dated 1998):

What was measured:
Type in all cases: in vivo
[1] = tested on: Sprague-Dawley rats; experiment: Cyclosporine-induced nephrotoxicity
Excerpt: B. Cyclosporine-Induced Nephrotoxicity: This experiment as performed to ascertain if EX-2 can mitigate the reduction in glomerular filtration rate (GFR) and renal blood flow, as well as the dysfunction in fluid and electrolyte homeostasis induced by immunosuppressive treatment with cyclosporine A.
In the first study, male Sprague-Dawley rats (n=43) with a weight range of 240-290 g at the initiation of the cyclosporine A (CsA) treatment were divided into 4 weight matched groups. The groups were as follows: (1) Control: no CsA, no EX-2, treatment only with CsA vehicle (PBS) PO and EX-2 vehicle (also PBS) IP; (2) CsA: treatment with CsA (50 mg/kg in PBS administered PO daily at 0830 hr for 9 days) and IP injections of PBS (Ex-2 vehicle); (3) CsA and 50 μg: CsA treatment identical to group 2 with the addition of EX-2 (50 μg/kg IP administered daily at 0800 and 1700 hr in EX-2 vehicle); and (4) CsA and 500 μg: CsA treatment identical to groups 2 and 3, and EX-2 treatment protocol similar to group 3 except that the dose of EX-2 was 500 μg/kg BW. After deep anesthesia was assured, the rats were cannulated in the trachea (PE 240) jugular vein, femoral artery, and bladder (PE 50 for the previous 3 cannulations).After cannulation, infusion of ^3 H-inulin was initiated 50 min prior to the measurement period to assess glomerular filtration rate, renal blood flow and plasma flow. Renal blood flow was determined by the inulin extraction technique. At the end of the study, the kidneys were removed for histological analysis.
In the second study, male Sprague-Dawley rats (n=31) with a weight range of 240-290 g at the time of initiation of the cyclosporine treatment were divided into 4 weight-matched groups. […] Renal hemodynamics were determined and extracellular fluid volumes were also assessed.
In the second study, where extracellular fluid volumes (ECF) were measured, there were no differences in ECF among control and treatment groups (27.6±1.9 in control, 27.5±1.7 in CsA and vehicle, 26.2±0.9 in CsA+200 μg/kg EX-2, and 25.7±1.4% in CsA+500 μg/kg EX-2). […]

[2] = tested on: IL-6; experiment: Reduction of LPS-induced Interleukin-6 levels in mice (ELISA); settings: 300 μg/mouse; LPS-treated mice vs untreated control
Procedure: Balb/c mice were grouped and treated as described in Example III, above. Blood samples were obtained from the orbital sinus at various times up to six hr and serum was collected and diluted as described above. A 100 μl aliquot was assayed for IL-6 levels using an IL-6-specific ELISA by a modification of the method of Starnes et al., J. Immunol. 145:4185-4194 (1990), which is incorporated herein by reference.
The mean (+/-SEM) IL-6 level in six mice from each group was determined and the percent reduction in IL-6 was calculated.

[3] = tested on: Wistar rats; experiment: LPS-induced temperature increase (fever); settings: 6 hr following LPS
Procedure: Male Wistar rats (45-75 days old) were placed in a temperature controlled room held at 26° C., which is thermoneutral for the normal body temperature of rats, and were maintained in the room with free access to food and water for 24 hr prior to testing. On the morning of the study, rats were marked for identification and weighed. The temperature of each rat was determined by placing the animal in a restraining cage designed to minimize stress and inserting a temperature probe (YSI probe #402) 3-5 cm into the animal's rectum. The temperature was recorded 15 sec after the reading stabilized. Measurements were repeated 1 hr later to establish a baseline temperature for each rat.
After the baseline temperatures were established, rats were injected IP with saline, IL-1β or LPS endotoxin.
Rats then were injected IP with either saline (control) or various concentrations of EX-2, EX-3, or EX-4 (treated). The temperature of the rats was measured every hr for 6 hr and the inhibition by EX-2, EX-3, or EX-4 of the rise in temperature due to IL-1β or LPS was determined.
In addition, treatment with 50 or 150 μg/kg EX-2 inhibited LPS-induced fever by 45% or 52%, respectively, when measured 6 hr following LPS injection. Furthermore, treatment with 150 μg/kg EX-3 or EX-4 inhibited LPS-induced fever by 57% and 52%, respectively (Table II).

[4] = tested on: Balb/c mice; experiment: Lipopolysaccharide-induced lethality (IP dosing); settings: 11 × 300 μg/mouse IP (3.3 mg total); 0.6 mg LPS
Procedure: These experiments were performed based on information reported by Rivier et al., Endocrinology 125:2800-2805 (1989), which is incorporated herein by reference. Adult female Balb/c mice were provided food and water ad libitum. Mice were injected IP every four hr for 40 hr with 30 to 300 μg EX-2, EX-3 or EX-4 in 0.2 ml saline (treated group) or with 0.2 ml saline, alone (control group) (10 mice per group). Immediately following the first injection, 0.6 mg LPS endotoxin in 0.2 ml saline was administered to each mouse. Following LPS injection, EX-2 or saline was administered to the treated mice or the control mice, respectively, every 4 hr for 36 hr.

[5] = tested on: Sprague-Dawley rats; experiment: Interleukin-1β-induced hyperalgesia (paw pressure); settings: 1 μg IP; 2 hr after IL-1β intra plantar
Procedure: These experiments were performed using a modification of the methods described by Poole et al., Br. J. Pharmacol. 106:489-492 (1992); Follenfant et al., Br. J. Pharmacol. 98:41-43 (1989); and Randall and Sellito, Arch. Internatl. Pharmacodyn. 111:409-419 (1957), each of which is incorporated herein by reference. Adult male Sprague-Dawley rats (175-275 g) were tested for hyperalgesia by a paw pressure technique using variable pressure instrumentation (IITC Life Sciences; Woodland Hills, Calif.). Rats were acclimated to the housing environment and were handled for three days prior to beginning a training session. On the day before the hyperalgesia experiments was to begin, each rat was placed into a sock and two variable paw pressure tests were performed 15 min apart.
Approximately 5-10% of the rats were non-responders and were eliminated from further experiments.
Animals that responded to the paw pressure were pretreated by IP injection of various concentrations of EX-2 in a volume of 1 ml/kg (treated) or saline, alone (control). After 20 min, 100 μl of IL-1β (1U/100 μl) was administered to rats via intra plantar injection. Two hr after IL-1 administration, rats were subjected to two additional paw pressure tests and the increase in mm Hg of pressure that could be applied to the EX-2-treated rats as compared to the control rats was determined.

Substance: Ac-Nle-Gln-His-(D)Phe-Arg-(D)Trp-Gly-NH2 [EX-2]
- Renal blood flow in CsA-treated rats ([1]; EX-2 IP twice daily with CsA, both studies): improved blood flow to values not different from control
- GFR in CsA-treated rats ([1]; compared to CsA and vehicle controls, both studies): significantly increased GFR
- Urinary protein excretion in CsA-treated rats ([1]; compared to CsA-treated rats): did not increase urinary protein excretion
- Reduction in IL-6 levels [2]: 60%
- Reduction in LPS-induced Fever ([3]; 50 μg/kg IP): 45%
- Reduction in LPS-induced Fever ([3]; 150 μg/kg IP): 52%
- Inhibition of LPS-induced Lethality (increase in survival vs control) [4]: 83%
- Reduction in IL-1-induced Hyperalgesia (increase in tolerated paw pressure vs control) [5]: 125%
